Data reported in ChEMBL document CHEMBL3774366, “Synthesis, and docking studies of phenylpyrimidine-carboxamide derivatives bearing 1H-pyrrolo[2,3-b]pyridine moiety as c-Met inhibitors” (Bioorg Med Chem, 2016).
pIC50: −log10 of the molar value.

Assays:
[1] = test system: MCF7
Description: (§1) Cytotoxicity against human MCF7 cells after 72 hrs by MTT assay

[2] = test system: A549; experiment: Cytotoxicity against human A549 cells after 72 hrs by MTT assay; conditions: for pIC50: Homo sapiens, A549, 72 h
[3] = test system: MCF7; experiment: cells; conditions: Homo sapiens, MCF7, 72 h
Description: as §1

[4] = cells; conditions: Homo sapiens, PC-3, 72 h
Description: Cytotoxicity against human PC3 cells after 72 hrs by MTT assay

[5] = test system: HepG2; experiment: Cytotoxicity against human HepG2 cells after 72 hrs by MTT assay; format: functional, cell-based; conditions: HepG2, 72 h
[6] = target: Hepatocyte growth factor receptor (Homo sapiens, UniProt P08581); experiment: Inhibition of c-Met (unknown origin) using FAM-labeled peptide substrate after 10 mins by mobility shift assay
Chain of Hepatocyte growth factor receptor (P08581 whole entry): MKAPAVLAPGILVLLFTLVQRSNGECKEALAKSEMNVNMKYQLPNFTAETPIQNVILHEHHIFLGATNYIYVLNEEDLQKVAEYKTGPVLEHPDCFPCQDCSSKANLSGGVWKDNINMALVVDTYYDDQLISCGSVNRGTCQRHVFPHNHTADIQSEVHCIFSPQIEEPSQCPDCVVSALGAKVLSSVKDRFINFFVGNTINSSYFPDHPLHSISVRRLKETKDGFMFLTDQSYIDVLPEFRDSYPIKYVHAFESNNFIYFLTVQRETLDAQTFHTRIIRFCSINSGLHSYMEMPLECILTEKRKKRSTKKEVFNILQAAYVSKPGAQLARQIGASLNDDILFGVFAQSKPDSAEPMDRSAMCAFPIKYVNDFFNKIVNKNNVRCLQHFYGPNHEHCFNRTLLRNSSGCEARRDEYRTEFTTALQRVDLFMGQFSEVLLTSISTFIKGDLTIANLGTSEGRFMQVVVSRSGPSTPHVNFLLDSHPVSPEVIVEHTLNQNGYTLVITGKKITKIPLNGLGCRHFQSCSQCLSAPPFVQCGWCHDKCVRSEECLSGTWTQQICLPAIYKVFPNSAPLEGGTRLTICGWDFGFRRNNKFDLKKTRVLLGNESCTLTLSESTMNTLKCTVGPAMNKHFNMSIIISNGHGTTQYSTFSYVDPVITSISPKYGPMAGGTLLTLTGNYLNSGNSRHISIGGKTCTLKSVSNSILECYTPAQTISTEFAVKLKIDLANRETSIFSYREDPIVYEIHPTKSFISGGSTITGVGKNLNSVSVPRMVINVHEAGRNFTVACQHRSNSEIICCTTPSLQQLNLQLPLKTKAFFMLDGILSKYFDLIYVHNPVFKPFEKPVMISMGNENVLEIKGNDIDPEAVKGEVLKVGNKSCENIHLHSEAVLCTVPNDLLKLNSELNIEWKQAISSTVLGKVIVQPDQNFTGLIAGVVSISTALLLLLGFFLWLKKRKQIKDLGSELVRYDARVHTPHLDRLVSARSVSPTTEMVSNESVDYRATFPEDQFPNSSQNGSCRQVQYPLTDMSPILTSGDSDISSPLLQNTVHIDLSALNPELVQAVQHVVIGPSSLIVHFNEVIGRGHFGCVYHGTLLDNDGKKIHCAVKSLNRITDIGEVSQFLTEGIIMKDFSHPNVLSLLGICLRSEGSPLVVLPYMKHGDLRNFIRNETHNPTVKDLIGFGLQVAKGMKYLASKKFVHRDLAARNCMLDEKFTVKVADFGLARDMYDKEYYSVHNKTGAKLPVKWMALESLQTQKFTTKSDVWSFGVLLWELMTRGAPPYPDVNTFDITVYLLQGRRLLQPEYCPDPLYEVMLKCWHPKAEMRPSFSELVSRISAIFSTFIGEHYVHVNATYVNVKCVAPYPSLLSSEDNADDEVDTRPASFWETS

[7] = test system: HeLa; experiment: Cytotoxicity against human HeLa cells after 72 hrs by MTT assay; format: functional, cell-based

SMILES	IC50 [1]	pIC50 [2]	pIC50 [3]	pIC50 [4]	pIC50 [5]	pIC50 [6]	pIC50 [7]	IC50 ([2]; a549)
O=C(Nc1ccc(Oc2ccnc3[nH]ccc23)c(F)c1)c1cc(-c2ccc(F)cc2)ncn1	Not Active	4.85	–	–	–	–	–	–
O=C(Nc1ccc(Oc2ccnc3[nH]ccc23)cc1)c1cc(-c2ccc(F)cc2)ncn1	–	4.89	4.80	–	–	–	–	–
COc1ccc(-c2ccnc(C(=O)Nc3ccc(Oc4ccnc5[nH]ccc45)cc3)n2)cc1	–	4.87	4.91	4.76	–	–	–	–
O=C(Nc1ccc(Oc2ccnc3[nH]ccc23)cc1)c1nccc(-c2cccc(Cl)c2)n1	–	5.39	4.99	5.11	–	–	–	–
COc1ccc(-c2cc(C(=O)Nc3ccc(Oc4ccnc5[nH]ccc45)cc3)ncn2)cc1	–	5.36	5.35	5.01	–	–	–	–
O=C(Nc1ccc(Oc2ccnc3[nH]ccc23)cc1)c1cc(-c2ccccc2)ncn1	–	6.85	7.70	6.62	5.51	6.92	6.40	–
O=C(Nc1ccc(Oc2ccnc3[nH]ccc23)c(F)c1)c1nccc(-c2ccc([N+](=O)[O-])cc2)n1	Not Active	5.35	–	4.92	–	–	–	–
O=C(Nc1ccc(Oc2ccnc3[nH]ccc23)c(F)c1)c1cc(-c2ccc(Cl)cc2)ncn1	–	5.47	4.57	5.49	–	–	–	–
O=C(Nc1ccc(Oc2ccnc3[nH]ccc23)c(F)c1)c1cc(-c2ccc(Br)cc2)ncn1	–	5.16	4.99	4.95	–	–	–	–
Cc1ccc(-c2ccnc(C(=O)Nc3ccc(Oc4ccnc5[nH]ccc45)c(F)c3)n2)cc1	–	5.94	5.14	6.28	4.78	5.47	5.26	–
COc1ccc(-c2cc(C(=O)Nc3ccc(Oc4ccnc5[nH]ccc45)c(F)c3)ncn2)cc1	–	5.38	4.98	5.59	–	–	–	–
Cc1ccc(-c2cc(C(=O)Nc3ccc(Oc4ccnc5[nH]ccc45)cc3)ncn2)cc1	–	5.27	5.79	5.01	–	–	–	–
Cc1ccc(-c2cc(C(=O)Nc3ccc(Oc4ccnc5[nH]ccc45)c(F)c3)ncn2)cc1	–	5.07	5.17	4.60	–	–	–	–
O=C(Nc1ccc(Oc2ccnc3[nH]ccc23)cc1)c1cc(-c2ccc(Br)cc2)ncn1	–	5.01	5.42	5.58	–	–	–	–
Cc1ccc(-c2ccnc(C(=O)Nc3ccc(Oc4ccnc5[nH]ccc45)cc3)n2)cc1	–	5.62	5.19	5.21	–	–	–	–
O=C(Nc1ccc(Oc2ccnc3[nH]ccc23)c(F)c1)c1nccc(-c2ccc(Cl)cc2)n1	–	5.05	5.02	4.84	–	–	–	–
O=C(Nc1ccc(Oc2ccnc3[nH]ccc23)cc1)c1cc(-c2ccc(C(F)(F)F)cc2)ncn1	–	5.03	5.20	5.67	–	–	–	–
COc1ccc(-c2ccnc(C(=O)Nc3ccc(Oc4ccnc5[nH]ccc45)c(F)c3)n2)cc1	–	5.27	5.05	4.85	–	–	–	–
O=C(Nc1ccc(Oc2ccnc3[nH]ccc23)c(F)c1)c1nccc(-c2cccc(Cl)c2)n1	–	6.35	5.80	5.86	5.03	5.66	5.47	–
O=C(Nc1ccc(Oc2ccnc3[nH]ccc23)cc1)c1cc(-c2ccc(Cl)cc2)ncn1	–	5.19	5.11	4.81	–	–	–	–
O=C(Nc1ccc(Oc2ccnc3[nH]ccc23)c(F)c1)c1cc(-c2ccccc2)ncn1	–	6.74	5.33	7.40	5.02	6.01	5.54	–
O=C(Nc1ccc(Oc2ccnc3[nH]ccc23)cc1)c1nccc(-c2ccc(Cl)cc2)n1	Not Active	4.65	–	–	–	–	–	–
O=C(Nc1ccc(Oc2ccnc3[nH]ccc23)c(F)c1)c1cc(-c2ccc(C(F)(F)F)cc2)ncn1	–	5.65	5.55	5.39	–	–	–	–
O=C(Nc1ccc(Oc2ccnc3[nH]ccc23)cc1)c1nccc(-c2ccc(F)cc2)n1	Not Active	–	–	–	–	–	–	Not Active
